Test results: patent US5464838A, “Aminocarboxylic acid derivatives having antiallergic/antiasthmatic effect and a process for their preparation” (Asta Medica Aktiengesellschaft, priority 1992, dated 1995)

Columns and labels:
[1] = tested on: histamine-precontracted trachea; experiment: histamine-precontracted trachea model (after Foster)
[2] = tested on: allergically induced bronchospasm; experiment: allergically induced bronchospasm in the guinea pig (modified Konzett-Rossler bronchospasmolysis); assay type: in vivo; settings: Cavia porcellus, iv, 0.25 h, test substance intravenously, ovalbumin-triggered bronchial constriction 15 minutes later, read-out: inhibitory effect (ID50) in allergically induced bronchospasm
Excerpt: The compounds of the invention are characterized by good antiallergic and antiasthmatic effect.
The test model used to determine these values was a modification of the bronchospasmolysis experiment described by Konzett and Rossler (1).
The animals were narcoticized with urethane (1.5 g/kg i.p.). Trachea and v. jugularis were exposed by means of a skin incision. A tracheal cannula (Our own construction) was fitted to permit the intravenous application of propanolol, ovalbumin and a test substances, and which also permitted artificial respiration (Starling Pump, Braun Melsungen) and measurement of the intratracheal pressure (pressure uptake: Venous Pressure Transducer, Statham, type W 101 connected to a bridge amplifier, Hellige and Multicorder 6-channel ink plotter, Watanabe, type: WA 621-1). The entire preparation was completed after about 15 minutes. During the subsequent experiment the animals were ventilated with 40 breaths per minute and a volume of about 1 ml room air/100 g body weight. The intratracheal pressure was adjusted by this means to 10-15 cm water column. After a habituation phase of about 30 minutes, the test substances were administered intravenously. Propanolol was administered 10 minutes later. […] The resultant increase in intratracheal pressure was recorded on the plotter for at least 15 minutes.

SMILES | IC50 [1] [µM] | ED50 [2] [µg/kg]
CNCCC(CCC(=O)O)n1nc(Cc2ccc(Cl)cc2)c2ccccc2c1=O (stereo not shown) [Example 3, 4-(4-chlorobenzyl)-2-(5-methylamino-1-carboxy-3-pentyl)1(2H) -phthalazinone] | 3.86 | 9.9
CNCCCC(CC(=O)O)n1nc(Cc2ccc(Cl)cc2)c2ccccc2c1=O (stereo not shown) [Example 6, 4-(4-chlorobenzyl)-2-[5-methylamino-1-carboxy-t-2-pentyl]-1(2H) -phthalazinone] | 35.5 | 0.8
